Among the data in US9821062B2, “Cyanine dye compound and preparation method therefor, and dual-function agent for photodynamic therapy and preparation method therefor” (ZHEJIANG HISUN PHARMACEUTICAL CO., LTD., priority 2012, dated 2017) are Fluorescence, Stokes shift and Absorption peak values, retold here.

A short description of this series: Ultraviolet spectroscopy detection: long-wavelength absorption peak, fluorescence, Stokes shift. The class given is physicochemical. From the text: Electronic absorption spectra for the compounds are shown in FIG. 1, from which it can be seen that, all the compounds having a structure shown in formula VIII, formula IX, formula III, formula IV, formula V, and formula XVII provided according to the present invention show a strong long-wavelength absorption peak between 750 nm and 860 nm, and have an obvious Stokes shift between 37 nm and 41 nm.

Consider `CC1(C)C(/C=C/C2=C(Sc3ccc(C(=O)O)cc3)C(=C/C=C3/N(CCCCS(=O)(=O)O)c4ccc5ccccc5c4C3(C)C)/CCC2)=[N+](CCCCS(=O)(=O)O)c2ccc3ccccc3c21` [Formula IX], for which the Fluorescence was determined as 876 nm and the Stokes shift was found to be 39 nm. Under “long-wavelength absorption peak”, the Absorption peak is recorded as 837 nm.
